Source: PubChem BioAssay AID256 (DTP/NCI, 2004)
Values joined by “and” are separate entries in the source; they are usually repeats but may differ in a detail not shown here. Identical values can stand only once. Toxic doses and inconclusive results are not listed. How the source made its calls: active means survival T/C of 150% or more; inactive means T/C below 125% in these data.

System: CD2F1 mice, L1210 leukemia ip, survival T/C
Test: NCI In Vivo Anticancer Drug Screen. Data for tumor model L1210 Leukemia (intraperitoneal) in CD2F1 (CDF1) mice
Conditions: higher = longer survival
How it was run: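 Ratio T/C, where T is the treated-group value and C the vehicle-dosed control value, from mice implanted with a transplantable tumor.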

[1] = endpoint: mean survival time, dose: 100.0 mg/kg/injection, schedule: Q01DX009 (ip), vehicle: saline with Tween-80
[2] = endpoint: mean survival time, dose: 200.0 mg/kg/injection, schedule: Q01DX009 (ip), vehicle: saline with Tween-80
[3] = endpoint: mean survival time, dose: 400.0 mg/kg/injection, schedule: Q01DX009 (ip), vehicle: saline with Tween-80
[4] = endpoint: mean survival time, dose: 100.0 mg/kg/injection, schedule: Q04DX003 (ip), vehicle: saline with Tween-80
[5] = endpoint: mean survival time, dose: 200.0 mg/kg/injection, schedule: Q04DX003 (ip), vehicle: saline with Tween-80
[6] = endpoint: mean survival time, dose: 400.0 mg/kg/injection, schedule: Q04DX003 (ip), vehicle: saline with Tween-80
[7] = endpoint: mean survival time, dose: 100.0 mg/kg/injection, schedule: Q04DX003 (ip), vehicle: Klucel (hydroxypropylcellulose) (HPC)
[8] = endpoint: mean survival time, dose: 200.0 mg/kg/injection, schedule: Q04DX003 (ip), vehicle: Klucel (hydroxypropylcellulose) (HPC)
[9] = endpoint: mean survival time, dose: 400.0 mg/kg/injection, schedule: Q04DX003 (ip), vehicle: Klucel (hydroxypropylcellulose) (HPC)
[10] = endpoint: mean survival time, dose: 100.0 mg/kg/injection, schedule: Q01DX001 (ip), vehicle: saline with Tween-80
[11] = endpoint: mean survival time, dose: 200.0 mg/kg/injection, schedule: Q01DX001 (ip), vehicle: saline with Tween-80
[12] = endpoint: mean survival time, dose: 400.0 mg/kg/injection, schedule: Q01DX001 (ip), vehicle: saline with Tween-80
[13] = endpoint: mean survival time, dose: 25.0 mg/kg/injection, schedule: Q01DX009 (ip), vehicle: saline with Tween-80
[14] = endpoint: mean survival time, dose: 50.0 mg/kg/injection, schedule: Q01DX009 (ip), vehicle: saline with Tween-80

Measured: T/C

CN(C)CCNc1ccc(O)c2c1C(=O)c1ccccc1C2=O
inactive: endpoint: mean survival time, dose: 10.0 mg/kg/injection, schedule: Q01DX009 (ip), vehicle: saline with Tween-80 94 % of control | endpoint: mean survival time, dose: 20.0 mg/kg/injection, schedule: Q01DX009 (ip), vehicle: saline with Tween-80 90 % of control | endpoint: mean survival time, dose: 40.0 mg/kg/injection, schedule: Q01DX009 (ip), vehicle: saline with Tween-80 107 % of control | endpoint: mean survival time, dose: 80.0 mg/kg/injection, schedule: Q01DX009 (ip), vehicle: saline with Tween-80 122 % of control

O=[N+]([O-])c1cccc(Cc2nncc3ccccc23)c1
inactive: [1] 96 % of control | [2] 94 % of control | [3] 94 % of control

CC(=O)N1C2=CCCC3CCCCC23c2ccccc21 (configuration not stated)
inactive: [1] 103 % of control | [4] 96 % of control | [2] 101 % of control | [5] 92 % of control | [3] 98 % of control | [6] 101 % of control

CC(N)c1ccccc1 (configuration not stated)
inactive: endpoint: mean survival time, dose: 37.5 mg/kg/injection, schedule: Q04DX003 (ip), vehicle: saline 98 % of control | endpoint: mean survival time, dose: 75.0 mg/kg/injection, schedule: Q01DX001 (ip), vehicle: saline 96 % of control | endpoint: mean survival time, dose: 75.0 mg/kg/injection, schedule: Q04DX003 (ip), vehicle: saline 100 % of control | endpoint: mean survival time, dose: 150.0 mg/kg/injection, schedule: Q01DX001 (ip), vehicle: saline 100 % of control | endpoint: mean survival time, dose: 150.0 mg/kg/injection, schedule: Q04DX003 (ip), vehicle: saline 100 % of control | endpoint: mean survival time, dose: 300.0 mg/kg/injection, schedule: Q01DX001 (ip), vehicle: saline 106 % of control

CCOC(=O)c1cc(=O)c2cc(S(=O)(=O)F)ccc2[nH]1
inactive: [7] 103 % of control | [8] 103 % of control | [9] 100 % of control

Nc1nc2c(ncn2-c2ccc(Cl)c(Cl)c2)c(=O)[nH]1
inactive: endpoint: mean survival time, dose: 50.0 mg/kg/injection, schedule: Q04DX002 (ip), vehicle: saline with Tween-80 98 % of control | endpoint: mean survival time, dose: 100.0 mg/kg/injection, schedule: Q04DX002 (ip), vehicle: saline with Tween-80 93 % of control and 97 % of control | endpoint: mean survival time, dose: 200.0 mg/kg/injection, schedule: Q04DX002 (ip), vehicle: saline with Tween-80 97 % of control | endpoint: mean survival time, dose: 400.0 mg/kg/injection, schedule: Q04DX002 (ip), vehicle: saline with Tween-80 93 % of control

ClC(Cl)c1nc2ccccc2[nH]1
inactive: endpoint: mean survival time, dose: 6.25 mg/kg/injection, schedule: Q01DX001 (ip), vehicle: Klucel (hydroxypropylcellulose) (HPC) 89 % of control | endpoint: mean survival time, dose: 12.5 mg/kg/injection, schedule: Q01DX001 (ip), vehicle: Klucel (hydroxypropylcellulose) (HPC) 96 % of control | endpoint: mean survival time, dose: 25.0 mg/kg/injection, schedule: Q01DX001 (ip), vehicle: Klucel (hydroxypropylcellulose) (HPC) 89 % of control

N#CCCN(N=O)C(=O)Nc1ccccc1
inactive: endpoint: mean survival time, dose: 6.25 mg/kg/injection, schedule: Q01DX Z (ip), vehicle: carboxymethylcellulose (CMC) 110 % of control | endpoint: mean survival time, dose: 12.5 mg/kg/injection, schedule: Q01DX Z (ip), vehicle: carboxymethylcellulose (CMC) 115 % of control | endpoint: mean survival time, dose: 75.0 mg/kg/injection, schedule: Q01DX Z (ip), vehicle: carboxymethylcellulose (CMC) 102 % of control

NC(=O)CC(C1SCCCS1)N1C(=O)OC2C(O)C(CO)OC21 (configuration not stated)
inactive: endpoint: mean survival time, dose: 10.94 mg/kg/injection, schedule: Q01DX005 (ip), vehicle: water 100 % of control | endpoint: mean survival time, dose: 21.88 mg/kg/injection, schedule: Q01DX005 (ip), vehicle: water 93 % of control | endpoint: mean survival time, dose: 43.75 mg/kg/injection, schedule: Q01DX005 (ip), vehicle: water 98 % of control | endpoint: mean survival time, dose: 87.5 mg/kg/injection, schedule: Q01DX005 (ip), vehicle: water 100 % of control | endpoint: mean survival time, dose: 175.0 mg/kg/injection, schedule: Q01DX005 (ip), vehicle: water 90 % of control

C=CCNC(=S)NCC
inactive: [1] 98 % of control | endpoint: mean survival time, dose: 100.0 mg/kg/injection, schedule: Q04DX003 (ip), vehicle: saline sonified 101 % of control | [2] 101 % of control | endpoint: mean survival time, dose: 200.0 mg/kg/injection, schedule: Q04DX003 (ip), vehicle: saline sonified 97 % of control | [3] 102 % of control | endpoint: mean survival time, dose: 400.0 mg/kg/injection, schedule: Q04DX003 (ip), vehicle: saline sonified 101 % of control

Fc1c(F)c(F)c(-c2nnc(-c3c(F)c(F)c(F)c(F)c3F)o2)c(F)c1F
inactive: [10] 96 % of control | [11] 96 % of control | [12] 95 % of control

OCCO
inactive: endpoint: mean survival time, dose: 100.0 mg/kg/injection, schedule: Q01DX009 (ip), vehicle: saline sonified 94 % of control and 101 % of control | endpoint: mean survival time, dose: 100.0 mg/kg/injection, schedule: Q04DX003 (ip), vehicle: saline 103 % of control and 106 % of control | endpoint: mean survival time, dose: 200.0 mg/kg/injection, schedule: Q01DX009 (ip), vehicle: saline sonified 94 % of control and 101 % of control | endpoint: mean survival time, dose: 200.0 mg/kg/injection, schedule: Q04DX003 (ip), vehicle: saline 104 % of control and 98 % of control | endpoint: mean survival time, dose: 400.0 mg/kg/injection, schedule: Q01DX009 (ip), vehicle: saline sonified 93 % of control and 104 % of control | endpoint: mean survival time, dose: 400.0 mg/kg/injection, schedule: Q04DX003 (ip), vehicle: saline 104 % of control and 101 % of control | endpoint: median survival time, dose: 0.25 % in 0.5 ml injection vol, schedule: Q01DX009 (ip), vehicle: water 95 % of control | endpoint: median survival time, dose: 0.5 % in 0.5 ml injection vol, schedule: Q01DX009 (ip), vehicle: water 94 % of control | endpoint: median survival time, dose: 1.0 % in 0.5 ml injection vol, schedule: Q01DX009 (ip), vehicle: water 94 % of control | endpoint: median survival time, dose: 2.0 % in 0.5 ml injection vol, schedule: Q01DX009 (ip), vehicle: water 105 % of control

O=[N+]([O-])c1cccc(/C=C/C=C/c2cccc(S(=O)(=O)F)c2)c1
inactive: [1] 100 % of control | [4] 93 % of control | [2] 93 % of control | [5] 96 % of control | [3] 95 % of control | [6] 90 % of control

COC(=O)c1ccc(OCCOc2ccc(C(C)(C)CC(C)(C)C)cc2)c(N)c1
inactive: [7] 94 % of control | [8] 100 % of control | [9] 101 % of control

CC(C)C(=O)Nc1cccc(OC(=O)NC(C)(C)C)c1
inactive: endpoint: mean survival time, dose: 25.0 mg/kg/injection, schedule: Q01DX001 (ip), vehicle: saline with Tween-80 100 % of control | endpoint: mean survival time, dose: 50.0 mg/kg/injection, schedule: Q01DX001 (ip), vehicle: saline with Tween-80 91 % of control | [10] 94 % of control

CCOC(=O)C(CCC#N)(CCC#N)C(=O)OCC
inactive: [1] 91 % of control | [4] 96 % of control | [2] 94 % of control | [5] 102 % of control | [3] 94 % of control | [6] 104 % of control

O=C1C(F)=C(F)C(=O)C(F)=C1F
inactive: endpoint: mean survival time, dose: 3.12 mg/kg/injection, schedule: Q01DX009 (ip), vehicle: Klucel (hydroxypropylcellulose) (HPC) 97 % of control | endpoint: mean survival time, dose: 6.25 mg/kg/injection, schedule: Q01DX009 (ip), vehicle: Klucel (hydroxypropylcellulose) (HPC) 98 % of control

O=C(Nc1ccc(F)cc1)c1cccc(C(=O)Nc2ccc(F)cc2)c1
inactive: [13] 95 % of control | [14] 94 % of control | [1] 94 % of control

NC(=S)N/N=C\c1ncccc1O
inactive: endpoint: mean survival time, dose: 25.0 mg/kg/injection, schedule: Q03HX024 (ip), vehicle: saline 120 % of control

NC(=O)COc1ccc(Cl)cc1Cl
inactive: [10] 98 % of control | [1] 94 % of control | [11] 94 % of control | [2] 96 % of control | [12] 94 % of control

C=CCOCC(O)CNc1ccccc1 (configuration not stated)
inactive: [14] 101 % of control | [1] 101 % of control | [2] 96 % of control

COc1cc2c(c(OC)c1OC)-c1ccc(SC)c(=O)cc1C(N=C(NC1OCC(OC(C)=O)C(OC(C)=O)C1OC(C)=O)SN(NC(=O)OCc1ccccc1)C(=O)OCc1ccccc1)CC2 (configuration not stated)
inactive: [10] 92 % of control

COc1cccc(C(=O)C=C(C(F)(F)F)C(F)(F)F)c1
inactive: endpoint: mean survival time, dose: 12.5 mg/kg/injection, schedule: Q01DX009 (ip), vehicle: saline with Tween-80 104 % of control | [13] 109 % of control

O=C(O)C1CC2C=CC1C2 (configuration not stated)
inactive: [1] 94 % of control | [4] 96 % of control | [2] 91 % of control | [5] 96 % of control | [3] 94 % of control | [6] 94 % of control

N#CCc1c(C(N)=O)ncn1C1OC(COP(=O)(O)O)C(O)C1O (configuration not stated)
inactive: endpoint: median survival time, dose: 12.5 mg/kg/injection, schedule: Q01DX005 (ip), vehicle: water 109 % of control | endpoint: median survival time, dose: 25.0 mg/kg/injection, schedule: Q01DX005 (ip), vehicle: water 104 % of control | endpoint: median survival time, dose: 50.0 mg/kg/injection, schedule: Q01DX005 (ip), vehicle: water 103 % of control | endpoint: median survival time, dose: 100.0 mg/kg/injection, schedule: Q01DX005 (ip), vehicle: water 97 % of control | endpoint: median survival time, dose: 200.0 mg/kg/injection, schedule: Q01DX005 (ip), vehicle: water 97 % of control
